Test results published in US10477864B2, “Microbiocidal quinoline (thio)carboxamide derivatives” (priority 2016, dated 2019).

What was measured:
[1] = system: Botryotinia fuckeliana (Botrytis cinerea); experiment: Botryotinia fuckeliana (Botrytis cinerea) / liquid culture (gray mould); assay type: cell-based; conditions: 72 h, read-out: control of Botryotinia fuckeliana
Fusarium culmorum [2] = experiment: microbe, parasite or virus in culture; assay type: cell-based; conditions: read-out: control of Fusarium culmorum
Fusarium culmorum [3] = experiment: whole plant or invertebrate; assay type: in vivo; conditions: in Triticum aestivum, read-out: control of Fusarium culmorum
[4] = system: Glomerella lagenarium (Colletotrichum lagenarium); experiment: Glomerella lagenarium (Colletotrichum lagenarium) / liquid culture (anthracnose); assay type: cell-based; conditions: Colletotrichum orbiculare; read-out: control of Glomerella lagenarium
[5] = system: Monographella nivalis (Microdochium nivale); experiment: Monographella nivalis (Microdochium nivale) / liquid culture (foot rot cereals); assay type: cell-based; conditions: 96 h, read-out: control of Monographella nivalis

Row | Compound | inhibition of growth at 200 ppm [1] [%] | inhibition of growth at 200 ppm (Fusarium culmorum [2]) [%] | pest or weed control at 200 ppm (Fusarium culmorum [3]) [%] | inhibition of growth at 200 ppm [4] [%] | inhibition of growth at 200 ppm [5] [%] | melting point [°C]
1 | Cc1c(C(=O)N[C@@](C)(Cc2ccccc2)CC(F)(F)F)cnc2c(F)cccc12 [Compound F-29, N-[(1S)-1-benzyl-3,3,3-trifluoro-1-methyl-propyl]-8-fluoro-4-methyl-quinoline-3-carboxamide] | ≥ 80 | ≥ 80 | ≥ 80 | ≥ 80 | ≥ 80 | –
2 | C=CCC(Cc1ccccc1)(NC(=O)c1cnc2c(F)cccc2c1)C(F)(F)F (stereo not drawn) [Compound E-92, N-[1-benzyl-1-(trifluoromethyl)but-3-enyl]-8-fluoro-quinoline-3-carboxamide] | ≥ 80 | ≥ 80 | ≥ 80 | ≥ 80 | ≥ 80 | –
3 | CCOC(OCC)C(C)(Cc1ccccc1)NC(=O)c1cnc2c(F)cccc2c1 (stereo not drawn) [Compound E-116, N-(1-benzyl-2,2-diethoxy-1-methyl-ethyl)-8-fluoro-quinoline-3-carboxamide] | ≥ 80 | ≥ 80 | – | – | ≥ 80 | –
4 | Cc1c(C(=O)N[C@](C)(Cc2ccccc2)CC(F)(F)F)cnc2c(F)cccc12 [Compound F-30, N-[(1R)-1-benzyl-3,3,3-trifluoro-1-methyl-propyl]-8-fluoro-4-methyl-quinoline-3-carboxamide] | ≥ 80 | ≥ 80 | – | ≥ 80 | ≥ 80 | –
5 | CC(Cc1ccccc1)(CC(F)(F)Cl)NC(=O)c1cnc2c(F)cccc2c1 (stereo not drawn) [Compound E-97, N-(1-benzyl-3-chloro-3,3-difluoro-1-methyl-propyl)-8-fluoro-quinoline-3-carboxamide] | ≥ 80 | ≥ 80 | ≥ 80 | ≥ 80 | ≥ 80 | –
6 | C/C=C/C(C)(Cc1ccccc1)NC(=O)c1cnc2ccccc2c1 (stereo not drawn) [Compound E-88, N-[(E)-1-benzyl-1-methyl-but-2-enyl]quinoline-3-carboxamide] | ≥ 80 | ≥ 80 | ≥ 80 | – | ≥ 80 | –
7 | Cc1c(C(=O)NC(C)(Cc2ccccc2)CC(F)(F)F)cnc2c(F)cccc12 (stereo not drawn) [Compound E-90, N-(1-benzyl-3,3,3-trifluoro-1-methyl-propyl)-8-fluoro-4-methyl-quinoline-3-carboxamide] | ≥ 80 | ≥ 80 | ≥ 80 | ≥ 80 | – | 154 to 158
8 | CC(C=C(F)F)(Cc1ccccc1)NC(=O)c1cnc2c(F)cccc2c1 (stereo not drawn) [Compound E-94, N-(1-benzyl-3,3-difluoro-1-methyl-allyl)-8-fluoro-quinoline-3-carboxamide] | ≥ 80 | ≥ 80 | ≥ 80 | ≥ 80 | – | 99 to 101
9 | C=C(C)C[C@](C)(Cc1ccccc1)NC(=O)c1cnc2c(F)c(F)ccc2c1 [Compound F-20, N-[(1R)-1-benzyl-1,3-dimethyl-but-3-enyl]-7,8-difluoro-quinoline-3-carboxamide] | ≥ 80 | ≥ 80 | ≥ 80 | ≥ 80 | ≥ 80 | –
10 | Cc1cccc2cc(C(=O)N[C@@](C)(Cc3ccccc3)CC(F)(F)F)cnc12 [Compound F-27, N-[(1S)-1-benzyl-3,3,3-trifluoro-1-methyl-propyl]-8-methyl-quinoline-3-carboxamide] | ≥ 80 | ≥ 80 | ≥ 80 | ≥ 80 | ≥ 80 | –
11 | C[C@](Cc1ccccc1)(CC(F)F)NC(=O)c1cnc2c(F)cccc2c1 [Compound F-32, N-[(1S)-1-benzyl-3,3-difluoro-1-methyl-propyl]-8-fluoro-quinoline-3-carboxamide] | ≥ 80 | ≥ 80 | ≥ 80 | ≥ 80 | ≥ 80 | –
12 | CC(Cc1ccccc1)(CC(F)(F)F)NC(=O)c1cnc2c(F)c(F)ccc2c1 (stereo not drawn) [Compound E-102, N-(1-benzyl-3,3,3-trifluoro-1-methyl-propyl)-7,8-difluoro-quinoline-3-carboxamide] | ≥ 80 | ≥ 80 | ≥ 80 | ≥ 80 | – | 158 to 160
13 | CON=CC(C)(Cc1ccccc1)NC(=O)c1cnc2c(F)cccc2c1 (stereo not drawn) [Compound E-117, N-(1-benzyl-2-methoxyimino-1-methyl-ethyl)-8-fluoro-quinoline-3-carboxamide] | ≥ 80 | ≥ 80 | – | – | ≥ 80 | –
14 | CC(F)(F)C[C@](C)(Cc1ccccc1)NC(=O)c1cnc2ccccc2c1 [Compound F-25, N-[(1S)-1-benzyl-3,3-difluoro-1-methyl-butyl]quinoline-3-carboxamide] | ≥ 80 | ≥ 80 | ≥ 80 | ≥ 80 | ≥ 80 | –
15 | Cc1cccc2ncc(C(=O)NC(C)(Cc3ccccc3)CC(F)(F)F)cc12 (stereo not drawn) [Compound E-86, N-(1-benzyl-3,3,3-trifluoro-1-methyl-propyl)-5-methyl-quinoline-3-carboxamide] | ≥ 80 | ≥ 80 | ≥ 80 | ≥ 80 | – | 101 to 103
16 | COCCC(C)(Cc1ccccc1)NC(=O)c1cnc2c(F)cccc2c1 (stereo not drawn) [Compound E-121, N-(1-benzyl-3-methoxy-1-methyl-propyl)-8-fluoro-quinoline-3-carboxamide] | ≥ 80 | ≥ 80 | – | – | ≥ 80 | –
17 | Cc1c(F)ccc2cc(C(=O)NC(C)(Cc3ccccc3)CC(F)(F)F)cnc12 (stereo not drawn) [Compound E-100, N-(1-benzyl-3,3,3-trifluoro-1-methyl-propyl)-7-fluoro-8-methyl-quinoline-3-carboxamide] | ≥ 80 | ≥ 80 | ≥ 80 | ≥ 80 | – | 127 to 129
18 | CC(C)(F)C[C@@](C)(Cc1ccccc1)NC(=O)c1cnc2c(F)cccc2c1 [Compound F-23, N-[(1R)-1-benzyl-3-fluoro-1,3-dimethyl-butyl]-8-fluoro-quinoline-3-carboxamide] | ≥ 80 | ≥ 80 | ≥ 80 | ≥ 80 | ≥ 80 | –
19 | C=C(C)C[C@@](C)(Cc1ccccc1)NC(=O)c1cnc2c(F)cccc2c1 [Compound F-9, N-[(1S)-1-benzyl-1,3-dimethyl-but-3-enyl]-8-fluoro-quinoline-3-carboxamide] | ≥ 80 | ≥ 80 | ≥ 80 | ≥ 80 | ≥ 80 | –
